From ChEMBL document CHEMBL1201862, “PubChem BioAssay data set” (2004)
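1) Cells in 96-well plates. 2) Compound, 48 h, 5 concentrations. 3) Linear interpolation between surrounding doses. 4) Unreached endpoint = highest concentration. GI50 = concentration required for 50% inhibition of growth.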 Calls of active or inactive are those of the source. Rule as the data show it: active = GI50 up to about 1.1 µM and inactive = higher.

Assays:
Test in all cases: NCI anticancer screen, dose series, 48 h
UACC-257 = system: UACC-257
SNB-19 = system: SNB-19
HCT-116 = system: HCT-116
RXF 393 = system: RXF 393
SR = system: SR
ACHN = system: ACHN
SF-268 = system: SF-268
TK-10 = system: TK-10
SN12C = system: SN12C
HOP-62 = system: HOP-62
NCI-H460 = system: NCI-H460
UO-31 = system: UO-31
SNB-75 = system: SNB-75
SK-MEL-5 = system: SK-MEL-5
COLO 205 = system: COLO 205
HCC 2998 = system: HCC 2998
RPMI-8226 = system: RPMI-8226
OVCAR-5 = system: OVCAR-5

Measured: GI50

Cc1c(C(=N)N)oc2ccccc12
inactive: UACC-257 > 100 µM | SNB-19 > 100 µM | HCT-116 > 100 µM | RXF 393 > 100 µM | SR > 100 µM | ACHN > 100 µM | SF-268 > 100 µM | TK-10 > 100 µM | SN12C > 100 µM | HOP-62 > 100 µM | NCI-H460 > 100 µM | UO-31 > 100 µM | SNB-75 79.6 µM | SK-MEL-5 > 100 µM | COLO 205 > 100 µM | HCC 2998 > 100 µM

COc1cc2c([C@@H](OC(=O)c3ccccc3)c3ccc4c(c3)OCO4)nccc2c(OC)c1OC
inactive: UACC-257 38.4 µM | SNB-19 93.8 µM | HCT-116 26.9 µM | RXF 393 20.2 µM | SR 17.8 µM | SF-268 48.8 µM | TK-10 75.9 µM | RPMI-8226 9.71 µM | SN12C 38.5 µM | HOP-62 > 100 µM | NCI-H460 54 µM | UO-31 2.7 µM | SNB-75 11.8 µM | SK-MEL-5 17.9 µM | COLO 205 78.7 µM | HCC 2998 92 µM | OVCAR-5 76.9 µM

CNC(SC)=C1C(=O)OC(C)(C)OC1=O
inactive: UACC-257 > 100 µM | SNB-19 > 100 µM | HCT-116 58.2 µM | RXF 393 68.9 µM | SR > 100 µM | ACHN > 100 µM | SF-268 > 100 µM | TK-10 > 100 µM | RPMI-8226 > 100 µM | SN12C > 100 µM | HOP-62 > 100 µM | NCI-H460 50 µM | UO-31 > 100 µM | SNB-75 > 100 µM | SK-MEL-5 > 100 µM | COLO 205 45.8 µM | HCC 2998 > 100 µM | OVCAR-5 > 100 µM

O=C1c2ccccc2C(=O)C2C3c4ccccc4C(c4ccccc43)C12 (configuration not stated)
inactive: UACC-257 23.7 µM | SNB-19 26.9 µM | HCT-116 28.8 µM | RXF 393 7.8 µM | SR 14.4 µM | ACHN 30.6 µM | SF-268 13.4 µM | TK-10 24.5 µM | RPMI-8226 10.9 µM | SN12C 23.9 µM | HOP-62 30 µM | NCI-H460 50.2 µM | UO-31 21.8 µM | SNB-75 15.6 µM | COLO 205 45 µM | HCC 2998 36.3 µM

CC1=Nc2ccccc2S(=O)(=O)N1
inactive: UACC-257 > 100 µM | SNB-19 > 100 µM | HCT-116 > 100 µM | RXF 393 > 100 µM | SR > 100 µM | ACHN > 100 µM | SF-268 > 100 µM | TK-10 > 100 µM | SN12C > 100 µM | HOP-62 > 100 µM | NCI-H460 > 100 µM | UO-31 > 100 µM | SNB-75 > 100 µM | SK-MEL-5 > 100 µM | COLO 205 > 100 µM | HCC 2998 > 100 µM | OVCAR-5 > 100 µM

O=C(CCN1CCN(c2ccccc2)CC1)N1CCc2c([nH]c3ccccc23)C1c1cccnc1 (configuration not stated)
inactive: UACC-257 15.9 µM | SNB-19 23.3 µM | HCT-116 14.9 µM | RXF 393 24.6 µM | SR 24.7 µM | ACHN 20 µM | TK-10 5.81 µM | RPMI-8226 > 10 µM | SN12C 15.2 µM | HOP-62 20.8 µM | NCI-H460 16.6 µM | UO-31 11.5 µM | SNB-75 28.8 µM | SK-MEL-5 14.4 µM | COLO 205 13.5 µM | HCC 2998 21.7 µM | OVCAR-5 16.9 µM

O=c1[nH][nH]c(=O)[nH]1
inactive: UACC-257 > 100 µM | SNB-19 > 100 µM | HCT-116 > 100 µM | RXF 393 > 100 µM | SR > 100 µM | SF-268 > 100 µM | TK-10 > 100 µM | RPMI-8226 > 100 µM | HOP-62 > 100 µM | NCI-H460 > 100 µM | UO-31 > 100 µM | SNB-75 > 100 µM | SK-MEL-5 > 100 µM | COLO 205 > 100 µM | HCC 2998 > 100 µM | OVCAR-5 > 100 µM
